# Source: patent US8415342B2, “Besifloxacin ophthalmic composition for the treatment or control of infection” (Bausch & Lomb Incorporated, priority 2008, dated 2013)
# Read-outs that look alike come from different tables or passages of the source.
# Assays:
# Type in all cases: cell-based
# Staphylococcus warneri = assay: MIC, CLSI broth microdilution, clinical isolates; conditions: Staphylococcus warneri (N = 50)
# [1] = test system: Staphylococcus lugdunensis; assay: MIC, CLSI broth microdilution, clinical isolates; conditions: Staphylococcus lugdunensis (N = 15)
# [2] = test system: Staphylococcus haemolyticus; assay: MIC, CLSI broth microdilution, clinical isolates; conditions: Staphylococcus haemolyticus (N = 101)
# S. aureus = assay: MIC of clinical trial isolates, Studies 373, 433, 434; conditions: Staphylococcus aureus
# [3] = test system: Lancefield group C, F, G streptococci; assay: MIC, CLSI broth microdilution, clinical isolates; conditions: G streptococci (N = 50)
# Moraxella catarrhalis = assay: MIC, CLSI broth microdilution, clinical isolates; conditions: Moraxella catarrhalis (N = 101)
# S. epidermidis = assay: MIC of clinical trial isolates, Studies 373, 433, 434; conditions: Staphylococcus epidermidis, read-out: MIC90
# [4] = test system: Staphylococcus epidermidis; assay: MIC, CLSI broth microdilution, clinical isolates; conditions: for MIC50: Staphylococcus epidermidis
# Staphylococcus hominis = assay: MIC, CLSI broth microdilution, clinical isolates; conditions: Staphylococcus hominis (N = 50)
# Citrobacter koseri = assay: MIC, CLSI broth microdilution, clinical isolates; conditions: Citrobacter koseri (N = 100)
# Streptococcus agalactiae = assay: MIC, CLSI broth microdilution, clinical isolates; conditions: Streptococcus agalactiae (N = 100)
# Legionella pneumophila = assay: microbe, parasite or virus in culture
# Streptococcus pyogenes = assay: MIC, CLSI broth microdilution, clinical isolates; conditions: Streptococcus pyogenes (N = 101)
# [5] = test system: Staphylococcus saprophyticus; assay: MIC, CLSI broth microdilution, clinical isolates; conditions: Staphylococcus saprophyticus (N = 101)
# Morganella morganii = assay: MIC, CLSI broth microdilution, clinical isolates; conditions: Morganella morganii (N = 51)
# Klebsiella oxytoca = assay: MIC, CLSI broth microdilution, clinical isolates; conditions: Klebsiella oxytoca (N = 50)
# Staphylococcus aureus = assay: MIC, CLSI broth microdilution, clinical isolates; conditions: for MIC50 / MIC90: Staphylococcus aureus
# Haemophilus influenzae = assay: MIC, CLSI broth microdilution, clinical isolates; conditions: for MIC50 / MIC90: Haemophilus influenzae
# Streptococcus pneumoniae = assay: MIC, CLSI broth microdilution, clinical isolates
# Viridans streptococci = assay: MIC, CLSI broth microdilution, clinical isolates; conditions: Viridans streptococci (N = 156)
# [6] = Staphylococcus epidermidis (CNS, N = 6)
# [7] = Staphylococcus epidermidis (CS, N = 9)
# [8] = Staphylococcus epidermidis (MSSE, N = 6)
# [9] = Staphylococcus epidermidis (all phenotypes, N = 15)
# [10] = Staphylococcus aureus (CNS, N = 16)
# [11] = Staphylococcus aureus (CS, N = 14)
# [12] = Staphylococcus aureus (all phenotypes, N = 30)
# [13] = MRSA, Staphylococcus aureus (MRSA, N = 11)
# [14] = MSSA, Staphylococcus aureus (MSSA, N = 19)
# [15] = Haemophilus influenzae (all phenotypes, N = 40)
# [16] = Haemophilus influenzae (bla negative, N = 24)
# [17] = Haemophilus influenzae (bla positive, N = 16)
# [18] = Streptococcus pneumoniae (PISP, N = 2)
# [19] = Streptococcus pneumoniae (PRSP, N = 2)
# [20] = Streptococcus pneumoniae (PSSP, N = 31)
# [21] = Streptococcus pneumoniae (all phenotypes, N = 35)
compound,measurement,setting,value
COc1c(N2CCNC(C)C2)c(F)cc2c(=O)c(C(=O)O)cn(C3CC3)c12 (stereo not shown) [Gatifloxacin],% S,Staphylococcus warneri,76.0%
same,MIC50,Staphylococcus warneri,0.12 µg/mL
same,MIC90,Staphylococcus warneri,4 µg/mL
same,% S,[1],73.3%
same,MIC50,[1],0.12 µg/mL
same,MIC90,[1],2 µg/mL
same,MIC Range,[1],0.03 to 8 µg/mL
same,% S,[2],40.6%
same,MIC50,[2],2 µg/mL
same,MIC90,[2],8 µg/mL
same,MIC90,"S. aureus; MRSA, S. aureus MRSA-CR, N 17, read-out: MIC90",> 8 µg/mL
same,MIC90,"S. aureus; MRSA, S. aureus MRSA-CS, N 9, read-out: MIC90 (due to limited isolates, highest MIC value is given)",0.25 µg/mL
same,MIC90,"S. aureus; MSSA, S. aureus MSSA-CR, N 17, read-out: MIC90",> 8 µg/mL
same,MIC90,"S. aureus; MSSA, S. aureus MSSA-CS, N 144, read-out: MIC90",0.25 µg/mL
same,% S,[3],98.0%
same,MIC Range,[3],0.06 to 2 µg/mL
same,MIC50,[3]; read-out: MIC50,0.12 µg/mL
same,MIC90,[3]; read-out: MIC90,0.25 µg/mL
same,MIC50,Moraxella catarrhalis,0.015 µg/mL
same,MIC90,Moraxella catarrhalis,0.015 µg/mL
same,MIC Range,Moraxella catarrhalis,0.008 to 0.25 µg/mL
same,MIC90,"S. epidermidis; MRSE, S. epidermidis MRSE-CR, N 24",> 8 µg/mL
same,MIC90,"S. epidermidis; MRSE, S. epidermidis MRSE-CS, N 27",0.25 µg/mL
same,MIC90,"S. epidermidis; S. epidermidis MSSE-CR, N 10",8 µg/mL
same,MIC90,"S. epidermidis; S. epidermidis MSSE-CS, N 50",0.25 µg/mL
same,% S,[4]; [6],50.0%
same,% S,[4]; [7],100.0%
same,MIC Range,[4]; [7],0.06-0.06 μg/mL
same,% S,"[4]; Staphylococcus epidermidis (MRSE, N = 9)",44.4%
same,% S,[4]; [8],83.3%
same,MIC Range,[4]; [8],0.06 to 1 µg/mL
same,% S,[4]; [9],60.0%
same,MIC90,[4]; [9],> 8 µg/mL
same,MIC50,"[4]; MRSE, Staphylococcus epidermidis (MRSE, N = 9)",1 µg/mL
same,MIC50,[4]; [6],1 µg/mL
same,MIC50,[4]; [7],0.06 µg/mL
same,MIC50,[4]; [8],0.06 µg/mL
same,MIC50,[4]; [9],0.06 µg/mL
same,% S,Staphylococcus hominis,32.0%
same,MIC50,Staphylococcus hominis,1 µg/mL
same,MIC90,Staphylococcus hominis,4 µg/mL
same,% S,Citrobacter koseri,99.0%
same,MIC50,Citrobacter koseri,0.015 µg/mL
same,MIC90,Citrobacter koseri,0.12 µg/mL
same,% S,Streptococcus agalactiae,100.0%
same,MIC Range,Streptococcus agalactiae,0.12 to 1 µg/mL
same,MIC50,Streptococcus agalactiae; read-out: MIC50,0.25 µg/mL
same,MIC90,Streptococcus agalactiae; read-out: MIC90,0.25 µg/mL
same,MIC50,Legionella pneumophila; Legionella pneumophila,0.03 µg/mL
same,MIC90,Legionella pneumophila; Legionella pneumophila,0.06 µg/mL
same,MIC Range,Legionella pneumophila; Legionella pneumophila (N = 50),0.015 to 0.06 µg/mL
same,% S,Streptococcus pyogenes,100.0%
same,MIC Range,Streptococcus pyogenes,0.06 to 0.5 µg/mL
same,MIC50,Streptococcus pyogenes; read-out: MIC50,0.12 µg/mL
same,MIC90,Streptococcus pyogenes; read-out: MIC90,0.25 µg/mL
same,% S,[5],100.0%
same,MIC50,[5],0.12 µg/mL
same,MIC90,[5],0.25 µg/mL
same,MIC Range,[5],0.03 to 0.25 µg/mL
same,% S,Morganella morganii,74.5%
same,MIC50,Morganella morganii,0.12 µg/mL
same,MIC90,Morganella morganii,> 8 µg/mL
same,% S,Klebsiella oxytoca,92.0%
same,MIC50,Klebsiella oxytoca,0.03 µg/mL
same,MIC90,Klebsiella oxytoca,0.5 µg/mL
same,MIC Range,Klebsiella oxytoca,0.015 to 8 µg/mL
same,% S,Staphylococcus aureus; [10],6.3%
same,% S,Staphylococcus aureus; [11],92.9%
same,MIC Range,Staphylococcus aureus; [11],0.03 to 1 µg/mL
same,% S,"Staphylococcus aureus; Staphylococcus aureus (MRSA, N = 11)",18.2%
same,% S,"Staphylococcus aureus; Staphylococcus aureus (MSSA, N = 19)",63.2%
same,% S,Staphylococcus aureus; [12],46.7%
same,MIC50,Staphylococcus aureus; [13],2 µg/mL
same,MIC90,Staphylococcus aureus; [13],> 8 µg/mL
same,MIC50,Staphylococcus aureus; [14],0.06 µg/mL
same,MIC90,Staphylococcus aureus; [14],2 µg/mL
same,MIC50,Staphylococcus aureus; [10],2 µg/mL
same,MIC90,Staphylococcus aureus; [10],> 8 µg/mL
same,MIC50,Staphylococcus aureus; [11],0.06 µg/mL
same,MIC90,Staphylococcus aureus; [11],0.25 µg/mL
same,MIC50,Staphylococcus aureus; [12],1 µg/mL
same,MIC90,Staphylococcus aureus; [12],> 8 µg/mL
same,% S,Haemophilus influenzae; [15],100.0%
same,MIC Range,Haemophilus influenzae; [15],≦0.004-0.015 μg/mL
same,% S,Haemophilus influenzae; [16],100.0%
same,MIC Range,Haemophilus influenzae; [16],≦0.004-0.015 μg/mL
same,% S,Haemophilus influenzae; [17],100.0%
same,MIC Range,Haemophilus influenzae; [17],≦0.004-0.015 μg/mL
same,MIC50,Haemophilus influenzae; [15],0.008 µg/mL
same,MIC90,Haemophilus influenzae; [15],0.008 µg/mL
same,MIC50,Haemophilus influenzae; [16],0.008 µg/mL
same,MIC90,Haemophilus influenzae; [16],0.008 µg/mL
same,MIC50,Haemophilus influenzae; [17],0.008 µg/mL
same,MIC90,Haemophilus influenzae; [17],0.008 µg/mL
same,% S,Streptococcus pneumoniae; [18],100.0%
same,MIC Range,Streptococcus pneumoniae; [18],0.25-0.25 μg/mL
same,% S,Streptococcus pneumoniae; [19],100.0%
same,MIC Range,Streptococcus pneumoniae; [19],0.12 to 0.25 µg/mL
same,% S,Streptococcus pneumoniae; [20],96.8%
same,MIC50,Streptococcus pneumoniae; [20],0.12 µg/mL
same,MIC90,Streptococcus pneumoniae; [20],0.25 µg/mL
same,MIC Range,Streptococcus pneumoniae; [20],0.015 to 4 µg/mL
same,% S,Streptococcus pneumoniae; [21],97.1%
same,MIC Range,Streptococcus pneumoniae; [21],0.015 to 4 µg/mL
same,MIC50,"Streptococcus pneumoniae; Streptococcus pneumoniae (all phenotypes, N = 35), read-out: MIC50",0.12 µg/mL
same,MIC90,"Streptococcus pneumoniae; Streptococcus pneumoniae (all phenotypes, N = 35), read-out: MIC90",0.25 µg/mL
same,MIC Range,Viridans streptococci,0.03 to 8 µg/mL
same,MIC50,Viridans streptococci; read-out: MIC50,0.25 µg/mL
same,MIC90,Viridans streptococci; read-out: MIC90,0.5 µg/mL
